# According to patent US11702632B2, “Ex vivo method of generating super regulatory T cells for the prevention of autoimmune disease” (University of Massachusetts, priority 2017, dated 2023):
# Tested on: humanized mouse model of GvHD
# Assay: Ex vivo-treated hPBMCs transferred into NSG mice, assessment of GvHD
# Type: in vivo
# Method: Animal protocols were approved by the Institutional Animal Care and use Committee of the University of Massachusetts Amherst. […] 10×10^6 treated hPBMCs in 150 μl of PBS were injected into mice via the tail vein.
# Clinical score was generated by adding grades for five criteria.
# IL-2 and IFNγ cytokine levels in plasma collected from NSG mice were determined by using human IFNγ and IL-2 Flex Sets (BD Biosciences). Data were acquired using a Fortessa 5 Laser Flow Cytometer (BD Biosciences) and analyzed using FCAP array software (Soft Flow Inc.).
smiles,measurement,setting,value
"CC(=O)c1c(O)c(C)c(O)c(Cc2c(O)c3c(c(C(=O)/C=C/c4ccccc4)c2O)OC(C)(C)C=C3)c1O [rottlerin, Rottlerin]",mice without overt signs of disease,"hPBMCs pre-treated, no human cells detected on day +70",Two of three
same,toxicity to hPBMCs,pre-treated hPBMCs,cytotoxic effects on hPBMCs
